What all share (assay): NCI-60 cell line screen, 48 h
Assay [1] deals with A549 NSCLC.
Assay [2] relates to ACHN renal.
Assay [3] has as its system EKVX NSCLC.
Assay [4] deals with HCC-2998 colon.
The subject of assay [5] is HOP-62 NSCLC.
In assay [6] the test system is MOLT-4 leukemia.
The test system of assay [7] is NCI-H460 lung.
Assay [8] relates to OVCAR-3 ovarian.
Assay [9] deals with OVCAR-4 ovarian.
In assay [10] the test system is SF-268 CNS.

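Interpolation was linear, between the two tested concentrations surrounding the appropriate level; five concentrations were tested over 48 hours in 96-well plates. TGI is the concentration that stops growth completely.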 Bounds are passed on as bounds.

On to `C=CCC1NCCC2=C1C(S(=O)(=O)c1ccc(C)cc1)c1ccccc12` (stereo not given), for which the TGI in [1] is 29.2 µM; in [2], 24.3 µM; in assay [3], 33.5 µM; in assay [4] it was 3.6 µM; in [5], 28.2 µM; in assay [6] it was more than 100 µM. For the same compound, the TGI in assay [7] was 26.2 µM; in assay [8] it was 26 µM; in assay [9] it was 25.7 µM; in assay [10] it was 34.7 µM.

Turning to `O=C1c2ccccc2C(=O)N1C(=S)c1ccccc1`, the TGI in [1], in assay [2], in assay [3], in assay [4], in assay [5] and in [6] was more than 100 µM in each case. In addition, the TGI in assay [7], in assay [8], in assay [9] and in assay [10] was more than 100 µM in each case.

For `Cc1ccc(NC(=O)c2cccc([N+](=O)[O-])c2O)c(C)c1`, the TGI in assay [1] was 63.8 µM; in [2], 89.5 µM; in [3], 98.6 µM; in assay [4], more than 100 µM; in assay [5], more than 100 µM; in [6] it was more than 100 µM. The TGI in assay [7], in [8], in assay [9] and in assay [10] was more than 100 µM in each case.

On to `C[C@H](CC[C@@H](O)C(C)(C)O)[C@H]1CC[C@@]2(C)[C@@H]3CC=C4[C@@H](CC[C@H](OC5OC(CO)C(O)C(O)C5O)C4(C)C)[C@]3(C)C(=O)C[C@]12C` (stereo not given in full), for which the TGI was more than 100 µM in [1]; 98.5 µM in assay [2]; more than 100 µM in assay [3]; more than 100 µM in assay [4]; more than 100 µM in [5]; more than 100 µM in assay [6]. The TGI in [7], in [8], in assay [9] and in assay [10] was more than 100 µM each time.

`CC1=CC(=O)c2cccc(NC3=NCCO3)c21`: the TGI in assay [1], in assay [2], in [3], in assay [4], in assay [5] and in [6] was more than 100 µM each time. Besides, the TGI is more than 100 µM in assay [7], 90.4 µM in [8], more than 100 µM in assay [9] and more than 100 µM in [10].

`COc1ccc(N2C(=O)C3c4[nH]c5ccccc5c4C4CCC(C(C)C)CC4C3C2=O)cc1` (stereo not given): the TGI in [1], in assay [2], in assay [3], in [4], in assay [5] and in assay [6] was more than 100 µM throughout. For the same compound, the TGI in assay [7], in [8], in [9] and in assay [10] was more than 100 µM each time.

`Clc1ccc(OCC2NC3C=CC32)cn1` (stereo not given): the TGI is more than 100 µM in [1]; more than 100 µM in assay [2]; 93.7 µM in [3]; more than 100 µM in assay [4]; more than 100 µM in assay [5]; more than 100 µM in assay [6]. The TGI in [7], in assay [8], in assay [9] and in [10] was more than 100 µM each time.

On to `COC(=O)C1=C(OC(=O)/C(=C/c2ccc(Cl)cc2)c2ccccc2)C(C(=O)OC)[C@@]2(O)[C@@H](C(=O)OC)[C@H](C)C[C@@H]1[C@@H]2C(=O)OC` (stereo not given in full), for which the TGI in assay [1], in assay [2], in assay [3], in assay [4], in [5] and in assay [6] was more than 100 µM each time. Further, the TGI in assay [7], in [8], in assay [9] and in assay [10] was more than 100 µM in each case.

Turning to `N#CSCC1COc2ccccc2O1` (stereo not given), the TGI in [1], in [2], in assay [3], in [4], in assay [5] and in [6] was more than 10 µM throughout. The TGI in assay [7], in [8], in [9] and in [10] was more than 10 µM in each case.

On to `CCCCCCC(CCl)c1sc(-c2csc(CCNC(=O)OC(C)(C)C)n2)nc1C(=O)OC` (stereo not given), for which the TGI in [1] was more than 100 µM; in assay [2] it was 81.6 µM; in assay [3], more than 100 µM; in assay [4] it was 62.6 µM; in assay [5], more than 100 µM; in assay [6], 24.2 µM. For the same compound, the TGI in assay [7] turned out to be 46.8 µM; in assay [8] it was 86.8 µM; in assay [9], 78 µM; in [10], 52.4 µM.

For the compound `CC(/C=N/NC1=NCCCCN1)=N\NC1=NCCCCN1`, the TGI in [1], in assay [2], in [3], in assay [4], in [5] and in assay [6] was more than 100 µM in each case. The TGI in [7], in assay [8], in assay [9] and in assay [10] was more than 100 µM throughout.

As to `O=C(c1ccc(Cl)cc1)N1N=C(c2ccc(Cl)cc2)CC1(O)c1cc(F)c(Cl)cc1Cl` (stereo not given), the TGI was more than 100 µM in assay [1]; 62.2 µM in [2]; 59.3 µM in assay [3]; 47.1 µM in assay [4]; 76.9 µM in assay [5]; more than 100 µM in assay [6]. The TGI in [7] was more than 100 µM; in [8] it was 55.6 µM; in assay [9], 51.5 µM; in [10] it was more than 100 µM.

In the case of `CCOC(=O)/C=C(/C(=O)OCC)n1c(=O)c(C)cn(C2CC(N=[N+]=[N-])C(CO)O2)c1=O` (stereo not given), the TGI is more than 100 µM in assay [1]; more than 100 µM in assay [2]; 94 µM in [3]; 31.4 µM in [4]; more than 100 µM in [5]; 25.6 µM in [6]. For the same compound, the TGI in [7] was more than 100 µM; in [8], 50.3 µM; in assay [9] it was more than 100 µM; in [10] it was more than 100 µM.

Take `Cc1ccc(S(=O)(=O)n2cc(-c3cnc(N)c(Br)n3)c3ccccc32)cc1`: the TGI was more than 100 µM in assay [1]; more than 89.4 µM in [2]; more than 100 µM in [3]; more than 100 µM in assay [4]; more than 100 µM in [5]; 10.7 µM in assay [6]. Besides, the TGI in assay [7] was more than 100 µM; in [8], more than 45.7 µM; in [9], more than 100 µM; in [10], more than 100 µM.

For the compound `CCCCCC(/C=C/[C@@H]1CC(=O)C[C@H]1O[Si](C)(C)C(C)(C)C)OCOCCOC` (stereo not given in full), the TGI in assay [1] was determined as 33.5 µM; in [2], 8.76 µM; in assay [3], 23.7 µM; in assay [4], 29.8 µM; in [5] it was 31.7 µM; in [6], 4.97 µM. For the same compound, the TGI is 40.2 µM in assay [7], 11.3 µM in assay [8], 26.3 µM in assay [9] and 10.5 µM in [10].

In the case of `N#CC1N(C(=O)c2ccc(F)cc2)c2ccccc2N1C(=O)c1ccc(F)cc1`, the TGI was more than 100 µM in assay [1]; more than 100 µM in [2]; more than 100 µM in [3]; more than 100 µM in assay [4]; more than 100 µM in [5]; 82.8 µM in assay [6]. For the same compound, the TGI in assay [7], in assay [8], in assay [9] and in assay [10] was more than 100 µM throughout.

Turning to `COc1ccc(N2CCN(c3ccc4c(c3)NCC(=O)N4)CC2)cc1`, the TGI in assay [1], in [2], in assay [3], in assay [4], in [5] and in assay [6] was more than 100 µM in each case. Also, the TGI in assay [7] was more than 100 µM; in [8], more than 100 µM; in [9], 77.3 µM; in assay [10], more than 100 µM.

As for `O=C(NCCO)c1c(O)c2ccccc2[nH]c1=O`, the TGI in [1], in assay [2], in assay [3], in [4], in [5] and in [6] was more than 100 µM each time. Moreover, the TGI in assay [7], in assay [8], in [9] and in assay [10] was more than 100 µM throughout.

For the origin of these results see PubChem BioAssay (NCI).
